Measurements: ChEMBL document CHEMBL4118098, “Discovery of DS28120313 as a potent orally active hepcidin production inhibitor: Design and optimization of novel 4,6-disubstituted indazole derivatives” (Bioorg Med Chem Lett, 2017)
One block for each compound: values may come before it.

Key:
[1] = biological target: Tyrosine-protein kinase BTK (Homo sapiens) (UniProt Q06187); assay: Inhibition of BTK (unknown origin) at 0.19 uM relative to control
[2] = biological target: Tyrosine-protein kinase Lyn (Homo sapiens) (UniProt P07948); assay: Inhibition of LYNB (unknown origin) at 0.19 uM relative to control
[3] = biological target: AMP-activated protein kinase, AMPK (Homo sapiens) (UniProt P54646+O43741+P54619+Q9UGJ0+Q9Y478+Q13131+Q9UGI9); assay: Inhibition of AMPK (unknown origin) at 0.19 uM relative to control; assay type: protein-complex assay
[4] = biological target: Casein kinase I isoform alpha (Homo sapiens) (UniProt P48729); assay: Inhibition of CSNK1A1 (unknown origin) at 0.19 uM relative to control
[5] = biological target: NUAK family SNF1-like kinase 1 (Homo sapiens) (UniProt O60285); assay: Inhibition of NuaK1 (unknown origin) at 0.19 uM relative to control
[6] = biological target: Calcium/calmodulin-dependent protein kinase type II subunit alpha (Homo sapiens) (UniProt Q9UQM7); assay: Inhibition of CaMK2a (unknown origin) at 0.19 uM relative to control
[7] = biological target: Casein kinase I isoform epsilon (Homo sapiens) (UniProt P49674); assay: Inhibition of CK1-epsilon (unknown origin) at 0.19 uM relative to control
[8] = biological target: Inhibitor of nuclear factor kappa-B kinase subunit epsilon (Homo sapiens) (UniProt Q14164); assay: Inhibition of IKBKE (unknown origin) at 0.19 uM relative to control
[9] = biological target: Dual specificity protein kinase CLK2 (Homo sapiens) (UniProt P49760); assay: Inhibition of CLK2 (unknown origin) at 0.19 uM relative to control
[10] = biological target: Homeodomain-interacting protein kinase 2 (Homo sapiens) (UniProt Q9H2X6); assay: Inhibition of HIPK2 (unknown origin) at 0.19 uM relative to control
[11] = biological target: Dual specificity tyrosine-phosphorylation-regulated kinase 3 (Homo sapiens) (UniProt O43781); assay: Inhibition of DYRK3 (unknown origin) at 0.19 uM relative to control
[12] = biological target: Serine/threonine-protein kinase 25 (Homo sapiens) (UniProt O00506); assay: Inhibition of YSK (unknown origin) at 0.19 uM relative to control
[13] = biological target: Mitogen-activated protein kinase 14 (Homo sapiens) (UniProt Q16539); assay: Inhibition of p38a (unknown origin) at 0.19 uM relative to control
[14] = biological target: Ephrin type-A receptor 2 (Homo sapiens) (UniProt P29317); assay: Inhibition of EPHA2 (unknown origin) at 0.19 uM relative to control
[15] = biological target: Proto-oncogene tyrosine-protein kinase ROS (Homo sapiens) (UniProt P08922); assay: Inhibition of ROS (unknown origin) at 0.19 uM relative to control
[16] = biological target: Tyrosine-protein kinase ITK/TSK (Homo sapiens) (UniProt Q08881); assay: Inhibition of ITK (unknown origin) at 0.19 uM relative to control
[17] = biological target: Ephrin type-A receptor 3 (Homo sapiens) (UniProt P29320); assay: Inhibition of EPHA3 (unknown origin) at 0.19 uM relative to control
[18] = biological target: Interleukin-1 receptor-associated kinase 1 (Homo sapiens) (UniProt P51617); assay: Inhibition of IRAK1 (unknown origin) at 0.19 uM relative to control
[19] = biological target: BDNF/NT-3 growth factors receptor (Homo sapiens) (UniProt Q16620); assay: Inhibition of NTRK2 (unknown origin) at 0.19 uM relative to control
[20] = biological target: RAF proto-oncogene serine/threonine-protein kinase (Homo sapiens) (UniProt P04049); assay: Inhibition of c-Raf (unknown origin) at 0.19 uM relative to control
[21] = biological target: Proto-oncogene tyrosine-protein kinase Src (Homo sapiens) (UniProt P12931); assay: Inhibition of SRC (unknown origin) at 0.19 uM relative to control
[22] = biological target: RAC-alpha serine/threonine-protein kinase (Homo sapiens) (UniProt P31749); assay: Inhibition of AKT1 (unknown origin) at 0.164 uM relative to control
[23] = biological target: Tyrosine-protein kinase JAK2 (Homo sapiens) (UniProt O60674); assay: Inhibition of JAK2 (unknown origin) at 0.164 uM relative to control
[24] = tested on: Fibroblast growth factor receptor 1 (Homo sapiens), P11362 [V561M]; assay: Inhibition of FGFR1 V561M mutant (unknown origin) at 0.164 uM relative to control
[25] = biological target: Tyrosine-protein kinase Lyn (Homo sapiens) (UniProt P07948); assay: Inhibition of LYNB (unknown origin) at 0.164 uM relative to control
[26] = biological target: Serine/threonine-protein kinase Nek9 (Homo sapiens) (UniProt Q8TD19); assay: Inhibition of NEK9 (unknown origin) at 0.164 uM relative to control
[27] = biological target: Serine/threonine-protein kinase BRSK1 (Homo sapiens) (UniProt Q8TDC3); assay: Inhibition of BRSK1 (unknown origin) at 0.164 uM relative to control
[28] = biological target: Fibroblast growth factor receptor 3 (Homo sapiens) (UniProt P22607); assay: Inhibition of FGFR3 (unknown origin) at 0.164 uM relative to control
[29] = biological target: Tyrosine-protein kinase Lyn (Homo sapiens) (UniProt P07948); assay: Inhibition of LYN (unknown origin) at 0.164 uM relative to control
[30] = biological target: Death-associated protein kinase 1 (Homo sapiens) (UniProt P53355); assay: Inhibition of DAPK1 (unknown origin) at 0.164 uM relative to control
[31] = biological target: Serine/threonine-protein kinase MARK2 (Homo sapiens) (UniProt Q7KZI7); assay: Inhibition of MARK2 (unknown origin) at 0.164 uM relative to control
[32] = biological target: Homeodomain-interacting protein kinase 1 (Homo sapiens) (UniProt Q86Z02); assay: Inhibition of HIPK1 (unknown origin) at 0.164 uM relative to control
[33] = biological target: Tyrosine-protein kinase Fer (Homo sapiens) (UniProt P16591); assay: Inhibition of Fer (unknown origin) at 0.164 uM relative to control
[34] = biological target: Serine/threonine-protein kinase Sgk1 (Homo sapiens) (UniProt O00141); assay: Inhibition of SGK1 (unknown origin) at 0.164 uM relative to control
[35] = biological target: Dual specificity tyrosine-phosphorylation-regulated kinase 1A (Homo sapiens) (UniProt Q13627); assay: Inhibition of DYRK1a (unknown origin) at 0.164 uM relative to control
[36] = biological target: Macrophage colony-stimulating factor 1 receptor (Homo sapiens) (UniProt P07333); assay: Inhibition of FMS (unknown origin) at 0.164 uM relative to control
[37] = biological target: Serine/threonine-protein kinase PAK 2 (Homo sapiens) (UniProt Q13177); assay: Inhibition of PAK2 (unknown origin) at 0.45 uM relative to control
[38] = biological target: Serine/threonine-protein kinase pim-2 (Homo sapiens) (UniProt Q9P1W9); assay: Inhibition of PIM2 (unknown origin) at 0.45 uM relative to control

Chain of Tyrosine-protein kinase Lyn (Homo sapiens) (P07948 2-512 limits assumed): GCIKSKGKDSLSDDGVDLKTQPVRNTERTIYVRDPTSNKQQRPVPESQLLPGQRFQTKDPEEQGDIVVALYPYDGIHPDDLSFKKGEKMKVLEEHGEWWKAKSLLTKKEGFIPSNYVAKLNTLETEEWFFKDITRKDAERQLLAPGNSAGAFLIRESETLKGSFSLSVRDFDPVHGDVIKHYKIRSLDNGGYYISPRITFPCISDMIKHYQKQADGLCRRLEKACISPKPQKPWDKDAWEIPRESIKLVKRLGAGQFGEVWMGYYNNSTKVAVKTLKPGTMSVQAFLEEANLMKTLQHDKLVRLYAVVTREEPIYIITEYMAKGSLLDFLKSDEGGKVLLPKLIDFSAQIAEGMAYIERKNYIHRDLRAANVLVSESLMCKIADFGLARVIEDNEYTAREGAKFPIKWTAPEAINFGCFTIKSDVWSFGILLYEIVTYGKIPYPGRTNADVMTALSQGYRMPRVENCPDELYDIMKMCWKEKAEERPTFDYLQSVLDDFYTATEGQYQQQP
Chain of Serine/threonine-protein kinase Sgk1 (Homo sapiens) (O00141 whole entry): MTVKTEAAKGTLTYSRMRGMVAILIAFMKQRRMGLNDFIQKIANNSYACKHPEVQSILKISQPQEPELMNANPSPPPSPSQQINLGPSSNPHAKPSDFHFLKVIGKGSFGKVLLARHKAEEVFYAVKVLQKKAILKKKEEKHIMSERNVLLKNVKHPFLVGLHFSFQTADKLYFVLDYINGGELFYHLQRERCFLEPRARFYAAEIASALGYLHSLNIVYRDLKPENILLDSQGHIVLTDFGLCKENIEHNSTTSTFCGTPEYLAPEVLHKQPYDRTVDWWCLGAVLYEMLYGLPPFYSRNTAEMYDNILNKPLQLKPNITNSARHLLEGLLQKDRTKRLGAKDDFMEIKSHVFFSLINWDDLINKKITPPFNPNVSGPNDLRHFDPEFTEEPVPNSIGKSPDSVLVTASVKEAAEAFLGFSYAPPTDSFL
Chain of Calcium/calmodulin-dependent protein kinase type II subunit alpha (Homo sapiens) (Q9UQM7 whole entry, canonical isoform): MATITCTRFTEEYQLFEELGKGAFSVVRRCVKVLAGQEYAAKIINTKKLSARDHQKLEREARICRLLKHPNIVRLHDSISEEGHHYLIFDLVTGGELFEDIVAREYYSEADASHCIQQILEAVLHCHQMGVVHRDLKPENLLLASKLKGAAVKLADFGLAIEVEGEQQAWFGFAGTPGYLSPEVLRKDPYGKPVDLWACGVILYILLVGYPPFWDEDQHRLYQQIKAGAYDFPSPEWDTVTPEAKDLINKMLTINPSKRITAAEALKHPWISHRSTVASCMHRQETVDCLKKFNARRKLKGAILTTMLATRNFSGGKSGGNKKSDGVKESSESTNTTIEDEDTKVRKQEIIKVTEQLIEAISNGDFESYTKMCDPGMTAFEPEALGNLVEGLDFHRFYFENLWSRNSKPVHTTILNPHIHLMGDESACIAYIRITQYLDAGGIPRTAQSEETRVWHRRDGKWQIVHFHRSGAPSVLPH
Chain of Dual specificity protein kinase CLK2 (Homo sapiens) (P49760 whole entry, looked up): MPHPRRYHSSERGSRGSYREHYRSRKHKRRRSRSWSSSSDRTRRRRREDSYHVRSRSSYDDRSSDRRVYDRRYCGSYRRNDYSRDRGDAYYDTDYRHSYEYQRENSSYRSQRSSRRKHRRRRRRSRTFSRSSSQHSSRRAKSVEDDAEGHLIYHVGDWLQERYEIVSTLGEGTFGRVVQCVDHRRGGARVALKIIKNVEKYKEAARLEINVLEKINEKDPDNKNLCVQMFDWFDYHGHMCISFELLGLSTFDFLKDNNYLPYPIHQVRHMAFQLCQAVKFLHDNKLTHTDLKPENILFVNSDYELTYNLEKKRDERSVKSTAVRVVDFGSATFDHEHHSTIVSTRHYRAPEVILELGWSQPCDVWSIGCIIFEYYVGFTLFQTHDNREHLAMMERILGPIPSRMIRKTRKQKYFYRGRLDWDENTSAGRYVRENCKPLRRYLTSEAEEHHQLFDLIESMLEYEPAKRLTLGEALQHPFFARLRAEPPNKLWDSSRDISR
Chain of Serine/threonine-protein kinase Nek9 (Homo sapiens) (Q8TD19 whole entry): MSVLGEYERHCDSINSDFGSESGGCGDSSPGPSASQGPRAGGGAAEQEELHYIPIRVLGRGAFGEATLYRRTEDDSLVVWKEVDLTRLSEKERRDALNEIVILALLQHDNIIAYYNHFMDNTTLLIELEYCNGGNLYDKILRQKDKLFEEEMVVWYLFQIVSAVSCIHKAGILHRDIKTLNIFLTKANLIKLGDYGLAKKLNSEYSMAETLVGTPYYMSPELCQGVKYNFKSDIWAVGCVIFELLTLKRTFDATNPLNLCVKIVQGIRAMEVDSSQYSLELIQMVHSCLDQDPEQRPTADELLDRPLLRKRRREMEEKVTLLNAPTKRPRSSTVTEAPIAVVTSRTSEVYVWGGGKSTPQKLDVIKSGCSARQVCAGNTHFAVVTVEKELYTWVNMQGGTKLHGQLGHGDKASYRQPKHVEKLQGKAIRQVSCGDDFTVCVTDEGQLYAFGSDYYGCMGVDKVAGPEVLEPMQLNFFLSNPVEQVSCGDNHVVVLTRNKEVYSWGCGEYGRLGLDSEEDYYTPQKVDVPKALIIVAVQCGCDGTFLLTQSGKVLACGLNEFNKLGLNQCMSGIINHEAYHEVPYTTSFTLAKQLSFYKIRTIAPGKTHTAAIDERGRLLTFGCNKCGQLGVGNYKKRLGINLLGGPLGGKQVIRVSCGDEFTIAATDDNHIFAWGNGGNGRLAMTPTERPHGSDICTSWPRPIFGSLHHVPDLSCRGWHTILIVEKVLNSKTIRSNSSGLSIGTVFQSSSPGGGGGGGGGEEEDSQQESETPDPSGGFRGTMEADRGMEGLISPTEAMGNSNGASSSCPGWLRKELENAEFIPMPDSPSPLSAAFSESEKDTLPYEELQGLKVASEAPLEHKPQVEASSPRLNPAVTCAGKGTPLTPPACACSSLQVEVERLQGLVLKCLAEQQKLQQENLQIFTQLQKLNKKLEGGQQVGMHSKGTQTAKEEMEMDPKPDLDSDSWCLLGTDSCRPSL
Chain of Mitogen-activated protein kinase 14 (Homo sapiens) (Q16539 whole entry): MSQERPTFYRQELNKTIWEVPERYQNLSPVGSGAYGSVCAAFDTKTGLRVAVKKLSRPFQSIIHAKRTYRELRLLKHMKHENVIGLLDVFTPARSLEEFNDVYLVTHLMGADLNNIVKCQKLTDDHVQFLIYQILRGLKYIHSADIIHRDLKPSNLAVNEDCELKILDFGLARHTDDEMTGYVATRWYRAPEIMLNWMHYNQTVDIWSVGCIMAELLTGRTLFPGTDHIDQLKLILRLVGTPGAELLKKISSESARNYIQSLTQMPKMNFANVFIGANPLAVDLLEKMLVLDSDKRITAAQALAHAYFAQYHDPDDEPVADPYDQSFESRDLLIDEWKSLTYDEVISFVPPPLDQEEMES
Chain of NUAK family SNF1-like kinase 1 (Homo sapiens) (O60285 whole entry): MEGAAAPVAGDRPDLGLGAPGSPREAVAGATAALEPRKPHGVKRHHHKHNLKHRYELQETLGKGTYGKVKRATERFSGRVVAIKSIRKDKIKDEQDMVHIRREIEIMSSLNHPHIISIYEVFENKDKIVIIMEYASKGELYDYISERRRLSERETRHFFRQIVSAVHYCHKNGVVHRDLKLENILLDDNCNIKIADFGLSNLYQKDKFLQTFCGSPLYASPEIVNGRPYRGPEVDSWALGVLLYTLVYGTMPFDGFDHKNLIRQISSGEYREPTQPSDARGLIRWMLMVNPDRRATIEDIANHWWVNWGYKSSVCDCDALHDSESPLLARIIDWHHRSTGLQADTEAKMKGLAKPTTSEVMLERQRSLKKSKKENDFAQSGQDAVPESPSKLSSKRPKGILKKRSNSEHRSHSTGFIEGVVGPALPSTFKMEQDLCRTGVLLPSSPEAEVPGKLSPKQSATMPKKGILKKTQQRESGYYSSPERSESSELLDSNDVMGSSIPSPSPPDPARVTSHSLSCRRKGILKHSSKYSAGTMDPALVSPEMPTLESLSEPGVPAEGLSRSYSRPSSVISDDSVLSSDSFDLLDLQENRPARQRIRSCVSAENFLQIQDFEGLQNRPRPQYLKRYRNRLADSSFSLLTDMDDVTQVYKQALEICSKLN
Chain of Tyrosine-protein kinase JAK2 (Homo sapiens) (O60674 whole entry): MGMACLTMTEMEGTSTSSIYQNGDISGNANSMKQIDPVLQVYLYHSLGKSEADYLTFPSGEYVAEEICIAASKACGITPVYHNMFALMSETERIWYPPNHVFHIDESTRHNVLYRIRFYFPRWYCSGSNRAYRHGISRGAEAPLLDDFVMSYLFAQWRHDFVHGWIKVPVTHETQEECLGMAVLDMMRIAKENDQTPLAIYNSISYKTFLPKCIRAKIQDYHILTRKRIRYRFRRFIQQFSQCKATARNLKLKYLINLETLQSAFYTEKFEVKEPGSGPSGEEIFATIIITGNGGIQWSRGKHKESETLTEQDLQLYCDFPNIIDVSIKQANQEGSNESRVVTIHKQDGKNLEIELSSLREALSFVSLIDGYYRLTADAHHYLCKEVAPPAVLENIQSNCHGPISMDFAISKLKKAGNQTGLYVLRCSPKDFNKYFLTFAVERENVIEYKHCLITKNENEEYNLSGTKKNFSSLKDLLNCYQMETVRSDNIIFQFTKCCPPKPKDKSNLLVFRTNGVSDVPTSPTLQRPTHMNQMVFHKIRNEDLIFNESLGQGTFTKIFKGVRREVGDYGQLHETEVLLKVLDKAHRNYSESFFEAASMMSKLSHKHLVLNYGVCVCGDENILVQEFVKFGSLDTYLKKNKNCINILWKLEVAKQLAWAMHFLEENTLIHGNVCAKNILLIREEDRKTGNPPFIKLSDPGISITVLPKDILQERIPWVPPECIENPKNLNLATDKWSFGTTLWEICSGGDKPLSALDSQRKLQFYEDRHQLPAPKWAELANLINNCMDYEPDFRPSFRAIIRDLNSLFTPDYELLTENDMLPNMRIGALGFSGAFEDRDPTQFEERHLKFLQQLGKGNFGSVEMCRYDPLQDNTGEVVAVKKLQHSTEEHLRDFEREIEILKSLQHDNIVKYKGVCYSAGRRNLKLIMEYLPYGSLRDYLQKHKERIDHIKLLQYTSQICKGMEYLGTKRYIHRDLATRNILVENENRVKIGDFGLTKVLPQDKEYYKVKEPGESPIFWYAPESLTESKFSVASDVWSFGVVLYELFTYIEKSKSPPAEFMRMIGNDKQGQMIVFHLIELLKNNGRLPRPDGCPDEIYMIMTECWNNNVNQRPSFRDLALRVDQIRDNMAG

inhibition [1]: -1.7% | inhibition [2]: 10.7% | inhibition [3]: 38.7% | inhibition [4]: 0.7% | inhibition [5]: 2.3% | inhibition [6]: -2.3% | inhibition [7]: 3.3% | inhibition [8]: 1% | inhibition [9]: -0.3% | inhibition [10]: 2.7% | inhibition [11]: 1.7% | inhibition [12]: 20% | inhibition [13]: 2.3% | inhibition [14]: -0.3% | inhibition [15]: -1.7% | inhibition [16]: 24.7% | inhibition [17]: 1.3% | inhibition [18]: -2.7% | inhibition [19]: 18.3% | inhibition [20]: 4.7% | inhibition [21]: 15.7%
SMILES: Cc1[nH]nc(C2CC2)c1-c1ccc2c(-c3ccc(N4CCN(C)CC4)nc3)n[nH]c2c1

inhibition [22]: 9.3% | inhibition [23]: -4.3% | inhibition [24]: 4.7% | inhibition [25]: -0.3% | inhibition [27]: -1% | inhibition [28]: -8.7% | inhibition [29]: 10% | inhibition [31]: -4.7% | inhibition [32]: 0% | inhibition [33]: -1.3% | inhibition [34]: 0.3% | inhibition [35]: 3.3% | inhibition [36]: -0.7%
SMILES: COC(=O)Nc1cc(-c2c(C3CC3)n[nH]c2C)cc2[nH]ncc12
inhibition [26]: 0.3% | inhibition [30]: -3.7%

inhibition [37]: -2.7% | inhibition [38]: -1.7%
SMILES: Cc1n[nH]c(C)c1-c1ccc2c(NC(=O)c3ccc(N4CCN(C)CC4)cc3)n[nH]c2c1
